Reference: article PMC4138023, “Selective HDAC Inhibition for the Disruption of Latent HIV-1 Infection” (PLoS ONE, 2014)

How the values were obtained:
Assay in all cases: microfluidic mobility shift (LabChip), FAM-acetylated peptide substrate
Format in all cases: biochemical
HDAC4 = molecular target: T1, HDAC4 (Homo sapiens, UniProt P56524); settings: read-out: HDAC IC50 (μM) without preincubation / HDAC4
T1 construct: purified commercial enzyme from BPS Bioscience
Text: microfluidic mobility shift (LabChip), FAM-acetylated peptide substrate on HDAC4

HDAC6 = molecular target: T2, HDAC6 (Homo sapiens, UniProt Q9UBN7); settings: read-out: HDAC IC50 (μM) without preincubation / HDAC4
T2 construct: purified commercial enzyme from BPS Bioscience
T2 sequence (Q9UBN7 1-1215): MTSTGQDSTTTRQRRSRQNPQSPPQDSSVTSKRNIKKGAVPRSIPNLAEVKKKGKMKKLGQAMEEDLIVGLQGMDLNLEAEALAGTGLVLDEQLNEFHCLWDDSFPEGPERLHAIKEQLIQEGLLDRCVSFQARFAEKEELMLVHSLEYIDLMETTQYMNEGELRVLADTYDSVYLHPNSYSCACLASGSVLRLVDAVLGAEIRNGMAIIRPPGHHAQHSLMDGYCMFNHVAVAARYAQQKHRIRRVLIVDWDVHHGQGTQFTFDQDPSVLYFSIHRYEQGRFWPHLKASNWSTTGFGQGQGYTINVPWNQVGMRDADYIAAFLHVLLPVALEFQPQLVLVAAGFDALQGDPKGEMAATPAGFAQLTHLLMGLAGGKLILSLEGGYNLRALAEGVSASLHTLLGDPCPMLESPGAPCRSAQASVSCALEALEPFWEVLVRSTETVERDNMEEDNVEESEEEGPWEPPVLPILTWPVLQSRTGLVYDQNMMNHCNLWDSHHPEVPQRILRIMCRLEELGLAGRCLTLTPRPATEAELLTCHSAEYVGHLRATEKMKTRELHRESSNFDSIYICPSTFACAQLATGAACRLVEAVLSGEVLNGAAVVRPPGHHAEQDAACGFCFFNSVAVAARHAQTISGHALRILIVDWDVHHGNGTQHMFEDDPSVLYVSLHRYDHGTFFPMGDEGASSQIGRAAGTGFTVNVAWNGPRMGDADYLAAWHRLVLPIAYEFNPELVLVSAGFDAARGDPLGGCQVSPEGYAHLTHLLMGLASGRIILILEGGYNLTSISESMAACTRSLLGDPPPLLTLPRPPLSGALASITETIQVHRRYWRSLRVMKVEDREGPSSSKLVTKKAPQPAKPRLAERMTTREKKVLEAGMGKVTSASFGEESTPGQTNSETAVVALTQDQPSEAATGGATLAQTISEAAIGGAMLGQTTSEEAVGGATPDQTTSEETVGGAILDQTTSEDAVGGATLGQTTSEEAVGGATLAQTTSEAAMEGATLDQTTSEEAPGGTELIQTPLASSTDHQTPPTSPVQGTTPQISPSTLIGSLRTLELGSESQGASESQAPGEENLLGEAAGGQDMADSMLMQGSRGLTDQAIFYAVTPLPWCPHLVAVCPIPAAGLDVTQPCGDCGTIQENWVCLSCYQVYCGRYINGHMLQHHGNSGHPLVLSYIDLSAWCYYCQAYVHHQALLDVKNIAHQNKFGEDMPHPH
Text: microfluidic mobility shift (LabChip), FAM-acetylated peptide substrate on HDAC6

HDAC7 = molecular target: T3, HDAC7 (Homo sapiens, UniProt Q8WUI4); settings: read-out: HDAC IC50 (μM) without preincubation / HDAC4
T3 construct: purified commercial enzyme from BPS Bioscience
T3 sequence (Q8WUI4 518-952 limits assumed): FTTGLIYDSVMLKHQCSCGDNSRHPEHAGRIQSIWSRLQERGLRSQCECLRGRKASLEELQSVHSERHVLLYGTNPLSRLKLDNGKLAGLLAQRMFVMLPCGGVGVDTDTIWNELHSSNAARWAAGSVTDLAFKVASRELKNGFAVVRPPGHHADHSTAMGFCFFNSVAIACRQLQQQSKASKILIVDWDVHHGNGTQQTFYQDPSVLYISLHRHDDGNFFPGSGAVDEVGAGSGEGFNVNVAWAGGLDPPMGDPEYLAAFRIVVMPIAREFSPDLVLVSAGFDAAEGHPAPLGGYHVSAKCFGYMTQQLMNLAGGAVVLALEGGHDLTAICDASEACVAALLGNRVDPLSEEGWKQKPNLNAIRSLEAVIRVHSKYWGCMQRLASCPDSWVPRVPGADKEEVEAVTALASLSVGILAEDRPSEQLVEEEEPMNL
Text: microfluidic mobility shift (LabChip), FAM-acetylated peptide substrate on HDAC7

HDAC2 = molecular target: T4, HDAC2 (Homo sapiens, UniProt Q92769); settings: without preincubation; […] min, room temperature, pH […] substrate; read-out: HDAC IC50 (μM) without preincubation / HDAC2
T4 construct: purified commercial enzyme from BPS Bioscience
Text: microfluidic mobility shift (LabChip), FAM-acetylated peptide substrate on HDAC2

HDAC3 = molecular target: T5, HDAC3 (Homo sapiens, UniProt O15379); settings: without preincubation; […] min, room temperature, pH […] substrate; read-out: HDAC IC50 (μM) without preincubation / HDAC3
T5 construct: purified commercial enzyme from BPS Bioscience; with Nuclear receptor corepressor 2
T5 sequence (O15379 whole entry): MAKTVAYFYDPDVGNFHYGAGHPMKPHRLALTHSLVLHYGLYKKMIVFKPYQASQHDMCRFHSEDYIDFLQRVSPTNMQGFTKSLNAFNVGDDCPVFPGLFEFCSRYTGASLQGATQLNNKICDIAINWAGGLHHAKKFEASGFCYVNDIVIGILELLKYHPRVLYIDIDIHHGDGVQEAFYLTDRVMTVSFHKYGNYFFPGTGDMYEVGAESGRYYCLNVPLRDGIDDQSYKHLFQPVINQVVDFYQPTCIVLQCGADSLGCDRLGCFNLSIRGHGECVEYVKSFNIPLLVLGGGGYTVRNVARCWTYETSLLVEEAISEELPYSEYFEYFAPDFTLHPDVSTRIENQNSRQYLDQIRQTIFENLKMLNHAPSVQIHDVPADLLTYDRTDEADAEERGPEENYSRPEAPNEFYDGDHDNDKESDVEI
T5 sequence (Q9Y618 whole entry partner): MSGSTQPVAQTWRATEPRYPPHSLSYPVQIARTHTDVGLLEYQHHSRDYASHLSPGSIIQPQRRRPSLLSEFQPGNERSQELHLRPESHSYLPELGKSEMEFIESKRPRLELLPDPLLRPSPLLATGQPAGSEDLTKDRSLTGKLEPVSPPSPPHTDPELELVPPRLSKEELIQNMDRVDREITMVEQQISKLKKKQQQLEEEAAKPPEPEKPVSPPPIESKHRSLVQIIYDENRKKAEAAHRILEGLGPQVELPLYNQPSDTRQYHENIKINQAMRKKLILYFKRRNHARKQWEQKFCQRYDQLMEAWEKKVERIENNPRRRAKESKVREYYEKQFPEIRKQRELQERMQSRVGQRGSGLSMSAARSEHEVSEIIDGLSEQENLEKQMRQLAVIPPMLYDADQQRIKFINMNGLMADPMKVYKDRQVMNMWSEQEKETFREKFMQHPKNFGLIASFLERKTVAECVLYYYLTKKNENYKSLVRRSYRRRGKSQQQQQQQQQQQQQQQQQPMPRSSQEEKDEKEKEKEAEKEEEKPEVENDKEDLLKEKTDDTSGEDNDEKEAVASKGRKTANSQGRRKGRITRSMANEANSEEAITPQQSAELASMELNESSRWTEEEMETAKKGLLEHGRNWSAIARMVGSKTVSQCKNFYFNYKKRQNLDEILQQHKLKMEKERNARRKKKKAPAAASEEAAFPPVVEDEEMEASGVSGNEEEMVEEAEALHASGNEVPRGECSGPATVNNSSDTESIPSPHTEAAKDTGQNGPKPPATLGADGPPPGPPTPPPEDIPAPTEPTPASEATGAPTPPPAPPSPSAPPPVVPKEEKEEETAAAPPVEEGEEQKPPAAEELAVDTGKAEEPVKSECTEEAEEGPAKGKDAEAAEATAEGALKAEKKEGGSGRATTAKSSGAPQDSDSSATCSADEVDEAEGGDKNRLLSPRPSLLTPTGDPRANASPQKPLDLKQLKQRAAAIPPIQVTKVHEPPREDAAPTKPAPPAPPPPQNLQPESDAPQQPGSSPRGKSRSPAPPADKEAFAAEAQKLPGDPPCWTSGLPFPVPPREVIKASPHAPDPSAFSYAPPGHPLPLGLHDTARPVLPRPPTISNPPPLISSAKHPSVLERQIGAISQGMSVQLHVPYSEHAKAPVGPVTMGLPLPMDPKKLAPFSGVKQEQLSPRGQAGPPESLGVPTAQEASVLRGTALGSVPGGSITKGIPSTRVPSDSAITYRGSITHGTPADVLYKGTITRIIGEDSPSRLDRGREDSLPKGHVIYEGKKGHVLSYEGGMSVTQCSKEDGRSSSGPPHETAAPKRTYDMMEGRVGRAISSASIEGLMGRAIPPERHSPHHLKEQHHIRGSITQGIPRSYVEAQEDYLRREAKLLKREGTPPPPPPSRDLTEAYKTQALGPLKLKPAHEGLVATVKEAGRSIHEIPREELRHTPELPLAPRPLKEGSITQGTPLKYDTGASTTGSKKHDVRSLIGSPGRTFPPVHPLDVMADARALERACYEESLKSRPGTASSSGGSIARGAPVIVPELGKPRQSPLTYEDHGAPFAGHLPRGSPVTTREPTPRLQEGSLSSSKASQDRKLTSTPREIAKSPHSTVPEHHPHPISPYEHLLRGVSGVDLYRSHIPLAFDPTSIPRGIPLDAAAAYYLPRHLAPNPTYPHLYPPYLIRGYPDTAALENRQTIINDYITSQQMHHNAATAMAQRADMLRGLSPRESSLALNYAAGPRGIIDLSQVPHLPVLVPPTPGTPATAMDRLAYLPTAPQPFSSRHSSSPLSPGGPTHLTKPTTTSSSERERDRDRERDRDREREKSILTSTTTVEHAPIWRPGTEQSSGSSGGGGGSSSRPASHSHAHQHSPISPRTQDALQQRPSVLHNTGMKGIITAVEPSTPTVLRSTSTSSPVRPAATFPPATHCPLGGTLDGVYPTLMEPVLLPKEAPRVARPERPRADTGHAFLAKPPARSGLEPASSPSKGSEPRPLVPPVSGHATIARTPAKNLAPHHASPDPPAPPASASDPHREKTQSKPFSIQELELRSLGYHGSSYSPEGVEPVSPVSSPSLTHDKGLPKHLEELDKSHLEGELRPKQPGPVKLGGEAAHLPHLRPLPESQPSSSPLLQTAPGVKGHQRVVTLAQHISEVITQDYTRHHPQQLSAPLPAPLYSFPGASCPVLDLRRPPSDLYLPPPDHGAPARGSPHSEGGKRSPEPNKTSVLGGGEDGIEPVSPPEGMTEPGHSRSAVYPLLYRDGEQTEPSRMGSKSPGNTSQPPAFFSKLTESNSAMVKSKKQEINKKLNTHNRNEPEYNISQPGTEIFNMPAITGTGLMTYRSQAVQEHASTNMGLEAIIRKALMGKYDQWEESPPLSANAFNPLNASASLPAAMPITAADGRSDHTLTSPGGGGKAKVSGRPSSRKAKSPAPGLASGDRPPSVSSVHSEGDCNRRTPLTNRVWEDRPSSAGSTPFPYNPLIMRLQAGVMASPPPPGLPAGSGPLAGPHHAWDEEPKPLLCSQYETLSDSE
Text: microfluidic mobility shift (LabChip), FAM-acetylated peptide substrate on HDAC3

HDAC9 = molecular target: T6, HDAC9 (Homo sapiens, UniProt Q9UKV0); settings: read-out: HDAC IC50 (μM) without preincubation / HDAC9
T6 construct: purified commercial enzyme from BPS Bioscience
T6 sequence (Q9UKV0 604-1011 limits assumed): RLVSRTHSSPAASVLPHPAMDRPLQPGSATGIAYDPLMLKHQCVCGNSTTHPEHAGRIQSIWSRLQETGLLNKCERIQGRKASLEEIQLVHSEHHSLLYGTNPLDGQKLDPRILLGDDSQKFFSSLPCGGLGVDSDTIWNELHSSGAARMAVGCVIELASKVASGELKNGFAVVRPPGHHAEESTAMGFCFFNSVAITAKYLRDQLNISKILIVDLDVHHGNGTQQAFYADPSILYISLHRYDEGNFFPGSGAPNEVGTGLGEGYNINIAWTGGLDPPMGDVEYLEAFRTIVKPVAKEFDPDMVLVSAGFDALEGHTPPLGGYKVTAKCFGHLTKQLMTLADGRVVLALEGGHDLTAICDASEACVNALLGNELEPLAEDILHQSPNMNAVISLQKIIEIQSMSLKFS
Text: microfluidic mobility shift (LabChip), FAM-acetylated peptide substrate on HDAC9

HDAC1 = molecular target: T7, HDAC1 (Homo sapiens, UniProt Q13547); settings: without preincubation; […] min, room temperature, pH […] substrate; read-out: HDAC IC50 (μM) without preincubation / HDAC1
T7 construct: purified commercial enzyme from BPS Bioscience
T7 sequence (Q13547 whole entry): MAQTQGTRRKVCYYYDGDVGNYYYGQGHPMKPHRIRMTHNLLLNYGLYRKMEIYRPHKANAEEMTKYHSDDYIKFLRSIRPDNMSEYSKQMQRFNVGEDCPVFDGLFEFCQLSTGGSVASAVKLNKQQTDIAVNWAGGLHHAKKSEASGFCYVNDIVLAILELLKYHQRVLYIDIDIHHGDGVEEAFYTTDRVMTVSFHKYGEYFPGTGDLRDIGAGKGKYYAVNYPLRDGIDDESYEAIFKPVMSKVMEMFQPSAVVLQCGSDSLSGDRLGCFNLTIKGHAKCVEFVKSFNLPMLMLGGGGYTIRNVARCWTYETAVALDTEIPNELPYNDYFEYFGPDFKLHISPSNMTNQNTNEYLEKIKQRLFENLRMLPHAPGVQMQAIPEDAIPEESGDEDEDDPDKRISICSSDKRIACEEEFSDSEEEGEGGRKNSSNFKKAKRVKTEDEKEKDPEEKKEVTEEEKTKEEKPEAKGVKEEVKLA
Text: microfluidic mobility shift (LabChip), FAM-acetylated peptide substrate on HDAC1

HDAC5 = molecular target: T8, HDAC5 (Homo sapiens, UniProt Q9UQL6); settings: read-out: HDAC IC50 (μM) without preincubation / HDAC5
T8 construct: purified commercial enzyme from BPS Bioscience
T8 sequence (Q9UQL6 whole entry): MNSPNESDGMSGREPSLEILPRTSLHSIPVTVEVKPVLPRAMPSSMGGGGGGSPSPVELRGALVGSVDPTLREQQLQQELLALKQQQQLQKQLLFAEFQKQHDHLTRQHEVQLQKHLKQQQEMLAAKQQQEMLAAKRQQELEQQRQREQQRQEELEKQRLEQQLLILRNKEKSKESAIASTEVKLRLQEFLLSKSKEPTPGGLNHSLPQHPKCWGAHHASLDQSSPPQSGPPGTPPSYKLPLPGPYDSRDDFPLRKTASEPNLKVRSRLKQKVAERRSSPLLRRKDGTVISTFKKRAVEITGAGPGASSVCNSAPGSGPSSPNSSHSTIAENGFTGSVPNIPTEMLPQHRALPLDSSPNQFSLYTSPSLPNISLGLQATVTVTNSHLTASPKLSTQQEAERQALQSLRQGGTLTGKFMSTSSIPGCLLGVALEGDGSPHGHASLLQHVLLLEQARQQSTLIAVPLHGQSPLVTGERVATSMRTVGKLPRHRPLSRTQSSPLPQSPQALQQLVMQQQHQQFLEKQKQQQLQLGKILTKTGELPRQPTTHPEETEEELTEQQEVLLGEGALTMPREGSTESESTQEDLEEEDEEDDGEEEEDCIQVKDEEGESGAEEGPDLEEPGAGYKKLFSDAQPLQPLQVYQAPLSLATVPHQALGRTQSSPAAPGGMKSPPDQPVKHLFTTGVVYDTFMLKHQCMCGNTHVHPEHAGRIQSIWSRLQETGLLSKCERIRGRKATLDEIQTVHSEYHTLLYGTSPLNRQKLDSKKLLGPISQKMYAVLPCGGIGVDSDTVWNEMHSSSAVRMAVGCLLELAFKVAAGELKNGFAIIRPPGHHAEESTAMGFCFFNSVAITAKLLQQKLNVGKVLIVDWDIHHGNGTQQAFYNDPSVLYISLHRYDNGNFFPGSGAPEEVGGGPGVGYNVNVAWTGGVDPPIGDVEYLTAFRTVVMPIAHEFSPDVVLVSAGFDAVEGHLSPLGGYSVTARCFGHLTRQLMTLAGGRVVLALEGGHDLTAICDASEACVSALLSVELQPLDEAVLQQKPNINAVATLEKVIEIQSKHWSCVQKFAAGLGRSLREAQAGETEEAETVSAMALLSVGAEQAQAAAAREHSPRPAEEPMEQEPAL
Text: microfluidic mobility shift (LabChip), FAM-acetylated peptide substrate on HDAC5

HDAC8 = molecular target: T9, HDAC8 (Homo sapiens, UniProt Q9BY41); settings: read-out: HDAC IC50 (μM) without preincubation / HDAC4
T9 construct: purified commercial enzyme from BPS Bioscience
T9 sequence (Q9BY41 1-377): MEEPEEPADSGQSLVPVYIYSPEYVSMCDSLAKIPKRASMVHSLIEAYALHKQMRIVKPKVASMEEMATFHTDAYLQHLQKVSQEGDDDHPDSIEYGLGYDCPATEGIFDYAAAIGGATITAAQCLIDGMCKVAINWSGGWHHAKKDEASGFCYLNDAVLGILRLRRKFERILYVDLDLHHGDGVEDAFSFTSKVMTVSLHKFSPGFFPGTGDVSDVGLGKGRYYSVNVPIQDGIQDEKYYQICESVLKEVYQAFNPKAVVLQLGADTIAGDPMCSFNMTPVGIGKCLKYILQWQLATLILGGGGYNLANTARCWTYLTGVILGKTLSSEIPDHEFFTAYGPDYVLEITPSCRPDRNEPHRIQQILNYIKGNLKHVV
Text: microfluidic mobility shift (LabChip), FAM-acetylated peptide substrate on HDAC8

CC(=O)Nc1ccc(C(=O)Nc2ccc(F)cc2N)cc1 [BRD3308]
IC50 (HDAC4): > 33 µM
IC50 (HDAC6): > 33 µM
IC50 (HDAC7): > 33 µM
IC50 (HDAC2): 1.34 µM
IC50 (HDAC3): 0.054 µM
IC50 (HDAC9): > 33 µM
IC50 (HDAC1): 1.26 µM
IC50 (HDAC5): > 33 µM
IC50 (HDAC8): > 33 µM
